Results on one molecule are retold here after patent publication US9714247B2, “Multiple kinase pathway inhibitors” (Mannkind Corporation, priority 2012, dated 2017).

Molecules are shown by their SMILES. pEC50: −log10 of the molar value.

As usually defined, the pEC50 is the EC50 on a negative log10 scale, so that one unit is a factor of ten.

Assay [1] deals with PC3. The assay is described as follows: Proliferation/viability assay. The assay is classed as cell-based. The conditions noted are these: Homo sapiens, PC-3; Table 10; Prostate Ca; read-out: Effect on Tumor Cell Growth EC50, PC3.
In assay [2] the test system is Ramos. In words: CellTiter-Glo proliferation/viability assay. The assay is classed as cell-based, human. The note with it: Homo sapiens, Ramos; Table 10; B Lymphoma; read-out: Effect on Tumor Cell Growth EC50, Ramos.
Assay [3] concerns SuDHL6. The assay is described as follows: Proliferation/viability assay. Type of assay: cell-based. The conditions noted are these: Homo sapiens, SU-DHL-6; Table 10; B Lymphoma; read-out: Effect on Tumor Cell Growth EC50, SuDHL6.
Assay [4] has as its system RPMI8226. In words: Proliferation/viability assay. The assay is classed as cell-based. The conditions noted are these: Homo sapiens, RPMI-8226; Table 10; Myeloma; read-out: Effect on Tumor Cell Growth EC50, RPMI 8226.
Assay [5] concerns Ramos. The conditions noted are these: cited from earlier work.
In assay [6] the test system is DoHH2. The conditions noted are these: cited from earlier work.
The subject of assay [7] is DoHH2. In words: CellTiter-Glo proliferation/viability assay. The conditions noted are these: Homo sapiens, DOHH-2; Table 10; B Lymphoma; read-out: Effect on Tumor Cell Growth EC50, DOHH2. Type of assay: cell-based, human. In general terms: In ATP-based viability assays light output follows the ATP content of the culture.

Consider `C=CC(=O)N1CCC[C@@H](n2nc(-c3ccc(Oc4ccccc4)cc3)c3c(N)ncnc32)C1` [PCI-32765, ibrutinib], for which the pEC50 was under 5.00 in assay [1]; under 5.00 in assay [2]; 5.26 in assay [3]; under 5.00 in assay [4]; 5.55 in assay [7]. For the same molecule, in assay [5], the “Resistance of Ramos to known kinase inhibitors” value is given as “resistant”. Moreover, the “Response of DoHH2 to known drugs” value in assay [6] is “responds”.
